# Tests used:
# [1] = system: MM.1S cells; test: Effect of the compound on the proliferation of MM.1S cells (MTS); type: cell-based; details: Homo sapiens, MM1.S, 168 h, 7 days, read-out: Cell inhibitory activity (IC50)
# Outline: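 In 1640 medium + 10% FBS, 20,000 cells per well were treated with 5-fold compound dilutions at 0.2% DMSO for 7 days at 37° C., 5% CO2. MTS was read after 3–4 h as OD490−OD690, inhibition was calculated against DMSO and blank wells, and IC50 was fitted; three independent experiments were run.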
# [2] = system: Mino cells; test: Effect of the compound on the proliferation of Mino cells (MTS); type: cell-based; details: Homo sapiens, 72 h, 3 days, read-out: Inhibitory activity (IC50)
# Procedure: Mino cells were cultured with 1640 plus […] and collected. The cell concentration was diluted according to the action time of 3 days, and 90 ul cell suspension was added to each well of the 96-well cell plate to make the cell count to be 8000. 10 ul of DMSO with a final concentration of 0.2% was added to the control cell wells. The compound was diluted 5-fold with the 10 mM stock solution, and 10 ul was also added to the compound cell wells (the final concentration of DMSO was 0.2%). The cells were placed in a 37° C., […] incubator and incubated for 3 days. After preparing the reaction solution according to the MTS kit (Promega, G5430), 20 μL was added to each well, incubated in a 37° C., 5% CO2 incubator for 3-4 h. Read the 490 nm absorbance value with a microtiter plate, and used the 690 nm absorbance value as the background value and OD490-OD690 as the final initial data. The formula for calculating the inhibition rate of the compound was: inhibition rate=(OD DMSO-ODcompound)/(ODDMSO-Oblank)×100%. The compound's proliferation inhibition IC50 was fitted by Graph Pad Prism 5.0. The experiment was repeated three times, and three parallel experiments were used to calculate the average and standard deviation each time.
# [3] = biological target: T1, CRBN (Homo sapiens, UniProt Q96SW2); test: Verification of interaction between compound and CRBN (elution from thalidomide FG beads, Western blotting); type: binding; design: dose or concentration left out as unconfirmed; details: Mino cell lysate, 25° C., 15 minutes, Western blotting with CRBN antibody
# T1 construct: lyse the blood tumor Mino cells, and centrifuged to obtain a clear cell lysate; endogenous in cells; host or cells: Mino cells (mantle cell lymphoma), lysate
# Source text: Studies have shown that lenalidomide immunomodulators in hematological tumor cell lines regulate the activity of CRBN-ubiquitin ligase complex by binding to CRBN, selectively induce ubiquitination and degradation of transcription factors IKZF1 and IKZF3, thereby achieving the role of treating malignant hematological tumors (Science, 2014, 343, 301; Science, 2014, 343, 305; Nature, 2015, 523, 183). By using high-efficiency affinity magnetic nanoparticles “FG beads”, thalidomide analogues were pre-attached to the magnetic beads, and the thalidomide FG beads could catch CRBN protein (Leukemia, 2012, 26, 2326; Science, 2010, 327, 1345). In this experiment, NP-400 cell lysate was used to lyse the blood tumor Mino cells, and centrifuged to obtain a clear cell lysate and divided it into three samples evenly. Thalidomide FG beads were added to the three samples, and the Thalidomide FG beads and the cell lysate were combined and incubated at 4° C. for 6 hours. After the incubation was completed, separated the magnetic beads with a magnetic stand, resuspended the separation with NP-400 lysate, repeated 3 times to obtain magnetic beads removed excess cell lysate. […] The eluate was denatured by heating with SDS Loading Buffer, and the amount of CRBN in each sample was detected by Western blotting with CRBN antibody (Proteintech).
# T1 sequence (Q96SW2 whole entry): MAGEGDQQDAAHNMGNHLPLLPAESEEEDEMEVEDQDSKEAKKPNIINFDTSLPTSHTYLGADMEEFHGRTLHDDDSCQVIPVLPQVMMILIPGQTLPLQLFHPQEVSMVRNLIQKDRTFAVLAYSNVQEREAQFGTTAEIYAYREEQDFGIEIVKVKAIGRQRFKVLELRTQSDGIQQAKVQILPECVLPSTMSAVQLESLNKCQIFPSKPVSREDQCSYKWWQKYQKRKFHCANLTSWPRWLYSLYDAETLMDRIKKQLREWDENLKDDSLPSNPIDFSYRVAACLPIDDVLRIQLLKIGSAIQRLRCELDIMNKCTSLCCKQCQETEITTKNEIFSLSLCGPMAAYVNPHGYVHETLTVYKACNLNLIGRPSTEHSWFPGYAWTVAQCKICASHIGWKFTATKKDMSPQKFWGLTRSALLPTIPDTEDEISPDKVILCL
structure (smiles),measurement,setting,value
O=C1CCC(N2Cc3c(OCc4cn(-c5ccc(OC(F)(F)F)cc5)nn4)cccc3C2=O)C(=O)N1 (stereo not drawn) [Compound 17],IC50,[1],< 150 nM
same,IC50,[2],< 150 nM
same,Elution of CRBN from thalidomide FG beads,[3],can elute CRBN from the magnetic beads bound to thalidomide

# Reference: patent US20220041578A1, “ISOINDOLINE COMPOUND, AND PREPARATION METHOD, PHARMACEUTICAL COMPOSITION, AND APPLICATION OF ISOINDOLINE COMPOUND” (Shanghai Institute of Meteria Medica, Chinese Academy of …, priority 2018, published 2022)
